Tests used:
[1] = tested on: ESC-T cells; assay: In vitro decidualization of immortalized human ESC-T cells (decidualization marker mRNA, morphology); format: cell-based
Source text: Decidualization in human cells was monitored by measuring the mRNA expression of two decidualization markers, PRL and IGFBP1.
This NADP+ analog inhibits two enzymes in the PPP, G6PD and 6GPDH, which utilize NADP+ and convert it into NADPH.
Two major results of the PPP are the production of ribose 5-phosphate and regeneration of NADPH. Production of ribose 5-phosphate is a central component in the de novo synthesis of ribonucleosides (RNs) and deoxyribonucleosides (DRNs). […] To address this question, ESC-T cultures were used and the differentiation media was supplemented with RNs and DRNs during treatment with PPP inhibitors.
(§1) Endometrial tissue was obtained from human uteri after hysterectomy conducted for benign disease or from endometrial biopsies. Informed consent was obtained from each patient before surgery and protocols were approved by the Human Research Protection Office of Washington University (HRPO#07-0949). Tissues were placed in HBSS and transported to the laboratory. hESCs were isolated and cultured as previously described. In vitro decidualization was performed as previously described with several changes. Cells were seeded in 6-well plates at 2×10^5 cells/well in DMEM:F12 without phenol red, supplemented with 2% heat-inactivated charcoal dextran-stripped calf serum (HyClone) and 50 μg/ml penicillin/streptomycin (Cambrex Bio Science). Cells were treated with 1 μM medroxyprogesterone-17-acetate (MPA) (Sigma) and 0.5 mM N^6, 2′-O-Dibutyryladenosine 3′,5′-cyclic monophosphate sodium salt (db-cAMP) (Sigma). Control samples received 0.1% ethanol vehicle control.
Human immortalized ESC (ESC telomerase immortalized, ESC-T), were decidualized in vitro in the presence of 0, 2.5 or 5 mM GlcN for 9 days.

[2] = tested on: human primary ESCs; assay: In vitro decidualization of human primary ESCs (decidualization marker mRNA); format: cell-based
Source text: (§2) In order to confirm that this is not a side effect of ESC immortalization with telomerase overexpression in this human cell line, the effect of DHEA on decidualization of primary ESC cultures from mouse and human uteri was also investigated. Murine ESCs were isolated from the gravid uterus at 4 days post coitus and cultured in vitro for 3 days to induce decidualization as described in the Methods. […] The human primary ESCs were isolated from uteri following hysterectomy for benign disease as outlined in the Methods and cultured in decidualization media for 9 days.
Control samples received 0.1% ethanol vehicle control.

[3] = tested on: ESC-T; assay: Viability of ESC-T with GlcN (MTT assay and flow cytometry); format: cell-based, human; conditions: 0, 2.5 or 5 mM GlcN for 9 days
Experimental: (§3) Human immortalized ESC (ESC telomerase immortalized, ESC-T), were decidualized in vitro in the presence of 0, 2.5 or 5 mM GlcN for 9 days. […] Thus, it was concluded that perturbation of the PPP activity by GlcN might lead to the failure of ESC decidualization and thus possibly be one of the first non-hormonal inhibitors of decidualization. Finally, in vivo evidence is provided that female mice with a time-release GlcN pellet (15-1500 μg) implanted in one uterine horn, delivered fewer live pups per litter over a 60-day period than those with control pellet implantation (8.25 vs 4.23 pups/litter; FIG. 25).

[4] = molecular target: T1, G6PDH (Homo sapiens, UniProt P11413); assay: G6PDH activity in decidualized ESC-T cells exposed to GlcN; format: cell-based
T1 construct: endogenous in cells; host or cells: human telomerase-immortalized endometrial stromal cells (ESC-T)
T1 sequence (P11413 whole entry): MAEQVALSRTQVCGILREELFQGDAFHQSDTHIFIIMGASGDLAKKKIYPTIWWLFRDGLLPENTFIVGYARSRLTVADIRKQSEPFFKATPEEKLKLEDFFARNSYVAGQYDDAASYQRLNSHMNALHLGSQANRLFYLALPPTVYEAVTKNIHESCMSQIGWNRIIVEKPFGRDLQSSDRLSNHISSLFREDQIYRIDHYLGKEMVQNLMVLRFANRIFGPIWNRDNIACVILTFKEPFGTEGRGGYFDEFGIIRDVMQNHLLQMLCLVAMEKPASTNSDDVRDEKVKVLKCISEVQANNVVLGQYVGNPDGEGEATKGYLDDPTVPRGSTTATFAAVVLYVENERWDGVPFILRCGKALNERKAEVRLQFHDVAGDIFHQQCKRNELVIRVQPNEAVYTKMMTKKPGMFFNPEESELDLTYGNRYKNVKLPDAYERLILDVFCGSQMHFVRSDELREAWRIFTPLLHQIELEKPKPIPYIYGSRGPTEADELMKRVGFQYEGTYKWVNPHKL
Experimental: as §3

[5] = tested on: ICR female mice; assay: Intrauterine time-release GlcN pellet and pups per litter; format: in vivo, mouse; conditions: time-release GlcN pellet (15-1500 μg) in one uterine horn; 60-day period
Experimental: FIG. 25A-B graphically depicts decreased birth rate by glucosamine in ICR mice. 6 weeks old ICR female mice were implanted with a control or GlcN (15-1500 μg) pellet on one uterine horn and (A) with or (B) without the hysterectomy on the other uterine horn. Pups per litter in pellet implanted female mice crossed with males were recorded. **, P<0.01.
as §3

[6] = tested on: murine ESCs; assay: In vitro decidualization of primary murine ESCs (Prp mRNA); format: cell-based, mouse; conditions: 3 days in vitro culture
Source text: as §2
For in vitro decidualization of ESCs, female mice were sacrificed at 4dpc. Pregnancy was confirmed by flushing dissected uterine horns and ostia with HBSS and observing for presence of blastocysts. Uteri confirmed for pregnancy were cut into 1 mm^3 pieces and incubated in Dulbecco's modified Eagle's Medium:F12 medium (DMEM:F12) without phenol red supplemented with 2 g/liter Collagenase Type I (Gibco) for 60-90 min at 37° C. Tissues were vortexed every 15 min during incubation. Following incubation, the solution was passed through a 40 μm sieve (BD Falcon) and centrifuged at 1100 rpm for 5 min. […]

[7] = tested on: hESC-Ts; assay: Radiolabeled glucose flux (1-14C, 6-14C, 5-3H-glucose) in hESC-Ts; format: cell-based, human
Experimental: For these experiments, hESCs immortalized via overexpression of telomerase (hESC-Ts) were used. […] The response of these cells to PPP inhibitors was also tested in order to confirm their similar dependence on the pathway for differentiation. In order to determine glucose flux through the various metabolic pathways in ESCs the metabolic fates of 1-^14C—, 6-^14C—, and 5-^3H-glucose was followed. hESC-Ts were incubated for 3 h with one of the radiolabled glucoses and production of ^14CO2 or ^3H2O was compared between the four treatment groups, control, decidualized, and decidualized with 2 μM or 5 μM 6-AN (FIG. 6). […] This was an indication that the flux through the TCA cycle or PPP was decreased in the inhibitor-treated ESCs. […] Therefore, inhibiting G6PD with 6-AN has no effect on TCA flux, but directly lowers the metabolism of glucose through PPP. The ratio of 1-C:6-C, which summarizes the relative preference of the PPP, can then be seen as decreasing in the presence of the inhibitor 6-AN.
This indicates an increase in the amount of glucose entering glycolysis without continuing into the TCA cycle, possibly being converted into lactate.

[8] = tested on: ESC-T cells; assay: EdU incorporation proliferation assay; format: cell-based, human
Source text: Other groups have shown that DHEA has anti-proliferative effects in a number of cell-lines and tissues. Thus, it was hypothesized that perhaps the PPP inhibitors prevent the proliferation of ESC-Ts and that this is an additional effect, independent of their role in decidualization inhibition. In a human uterus the stromal cells go through a cyclical oscillation between proliferation and differentiation, determined by the hormonal milieu. ESC-Ts in vitro remain in the proliferative state until they are exposed to differentiation media, which causes the cells to halt cell division and enter differentiation. Proliferation of ESC-T cells were monitored by EdU incorporation in vitro, which indicates entry into the S-phase of the cell cycle, in the absence of the differentiation hormones.
Following 60 hr of the treatment indicated in the experiment, EdU was added to the culture medium at a concentration of […]. Cells were harvested and stained using the Click-iT EdU Flow Cytometry Kit (Invitrogen). Quantitative data were collected using a BD FACSCalibur flow cytometer (Becton Dickinson, San Jose, Calif.) and analyzed with FlowJo software (TreeSTar, Inc., Ashland, Oreg.). For confocal microscopy, the cells were stained on coverslips using the same protocol. Nuclei were counterstained with TOPRO-iodide (Molecular probes) at a 1:500 dilution. Cells were mounted on slides using Vectashield (Vector Labs) and visualized using a Nikon C1 microscope.

[9] = tested on: ICR female mice; assay: Intrauterine DHEA or 6-AN pellet and pregnancy outcome; format: in vivo, mouse
Experimental: ICR female mice had either placebo (n=26), DHEA (1.5 mg/60 days)(n=20), or 6-AN pellets (150, 15, 1.5 mcg/60 days)(n=24) placed into the uterine horn after index delivery. Females were then mated and litter size was measured over the following 120 days post pellet. Mice were housed according to the Institutional Animal Care and use Committee and NIH guidelines. Day to first litter, number of litters, number of pups, average pups/litter were recorded. Serum DHEA levels were quantified (Alpco, Salem, N.H.). All pellets (placebo, DHEA, 6-AN) were custom-formulated (Innovative Research, Inc).

[10] = tested on: human ESCs
Experimental: as §1

[11] = tested on: human immortalized ESCs; conditions: 1 μM and 1.5 μM IA; 5-3H-glucose for four hours
Experimental: In order to confirm inhibition of glycolysis, human immortalized ESCs were incubated in the presence of 5-^3H-glucose for four hours and the amount of ^3H2O production (H2O produced from the 5th hydrogen of glucose is a product of glycolysis) in ESCs exposed to different concentrations of IA was measured (FIG. 2b).

[12] = decidualized cells with 2 μM or 5 μM 6-AN, 3 h

## N[C@H]1C(O)O[C@H](CO)[C@@H](O)[C@@H]1O (some centres unmarked) [GlcN, glucosamine]
[1]; GlcN 2.5 or 5 mM, quantitative RT-PCR
  mRNA expression of prolactin, somatostatin, interleukin-15, left-right determination factor 2, tissue inhibitor of metalloproteinase 3: significantly lower expression levels
[1]; GlcN, day 3 through day 9
  Expression levels of PRL and SMST over time: decreased the expression levels
[2]; GlcN, day 9 of culture
  mRNA expression of prolactin, somatostatin, interleukin-15, left-right determination factor 2, tissue inhibitor of metalloproteinase 3: significantly lower expression levels
[3]
  Viability / proliferation: viability similar to control cells
[4]
  G6PDH activity vs control cells: significantly lower
[5]
  Live pups per litter: 4.23 pups/litter

## NC(=O)c1ccc(N)nc1 [6-AN, 6-aminonicotinamide]
[1]; 10 μM 6AN, day 3 to day 9 in culture
  Expression of PRL and IGFBP: inhibited
[6]
  Prp mRNA expression: decreased Prp expression
[2]; 9 days in decidualization media
  Expression of PRL and IGFBP1: decreased
[7]; [12]
  Metabolism of glucose labeled at the C-1 position (14CO2): lower in the decidualized cells exposed to 6-AN in a concentration dependent manner
  Metabolism of the 6-C labeled glucose (14CO2): not affected
[7]; decidualized cells with 5 μM 6-AN
  Glycolytic flux of 5-3H labeled glucose: returned almost to the same levels as the control
[7]; presence of 6-AN
  Ratio of 1-C:6-C (relative preference of the PPP): decreasing
[8]; 100 μM DHEA, 50 μM 6AN
  EdU-positive nuclei vs DMSO control: drastic decrease
[8]; 4 independent experiments
  Proliferation by EdU geometric mean fluorescence intensity (flow cytometry): decreases proliferation of ESC-Ts in a concentration dependent manner
[9]; 6-AN pellet, not significant from control (p=0.4)
  Reduction in average pup/litter size: 37.7%
[9]; intrauterine pellet: DHEA 1.5 mg/60 days, 6-AN 150, 15, 1.5 mcg/60 days, controls 27 days
  Average time to first litter: 34 days

## O=C(O)CI [IA, Iodoacetate]
[10]; IA concentrations below the toxic threshold
  Decidualization assessed by Prl marker expression: not affected
[10]; within 24 hr of administration
  Concentration inducing cell death: ≥ 2 µM
[11]
  Reduction of flux of glucose through glycolysis: 40%

— US9381193B2, “Contraceptive methods and compositions” (WASHINGTON UNIVERSITY, priority 2011, dated 2016)
